What was measured:
DGKα = DGKα (Homo sapiens, UniProt P23743); assay: DGKα kinase assay with liposomes and purified enzyme; format: biochemical; settings: purified enzyme, liposomes; highest drug concentration 100 μM
Method: To obtain purified protein, 293T cells were cultured in DMEM containing 5% fetal calf serum and 1% penicillin/streptomycin (GIBCO™, Thermo Fisher Scientific, Waltham, Mass., United States of America). The cells were transiently transfected with 40 μg of pcDNA3-FLAG-DGKα plasmid/plate. The transfection was done using lipofectamine 2000 at a 2:1 ratio of DNA:lipofectamine. The cells were harvested and homogenized in lysis buffer (10 mM Na2HPO4, pH 7.4, 50 mM β-glucopyranose, 50 mM NaF, 1 mM EDTA, 1 mM EGTA, 0.02% Triton X-100, phenylmethylsulfonyl fluoride, leupeptine, and pepstatin). The cell homogenate was centrifuged at 16,000×g at 4° C. for 10 minutes. The supernatant was immunoprecipitated with anti-FLAG (M2) beads for 2 hours at 4° C. The beads were packed onto a screening column and washed five times with the lysis buffer. The protein was eluted with five successive 200 μl fractions of 0.5 mg/ml of FLAG peptide (LifeTein, LLC, Somerset, N.J., United States of America). The elution fractions containing DGKα were combined and dialyzed three times against 10 mM Na2HPO4 (pH 7.4), and 50 mM β-glucopyranose, 50 mM NaF, 1 mM EDTA, and 1 mM EGTA. The purified DGKs were quantified with UV absorbance and by comparing DGKα bands with bovine serum albumin standards on Coomassie-blue stained SDS-PAGE gels. […]

GL261 GBM line = assay: cell growth suppression, live cell count; format: cell-based; settings: Mus musculus, GL261, 96 h; single dose, live cells four days post-treatment
Method: (§1) Single dye controls were used for compensation. […] Experiments were repeated several times per cell type.
(§2) Several cancer cell lines were tested in vitro to determine whether ritanserin was cytotoxic. A single dose of ritanserin was sufficient to suppress cell growth in GBM lines U251 (human), GL261 (mouse), and JWL578 (human GBM stem cell line) with IC50s 5-10 μM, very similar to previous results with R59022. See also, Dominguez et al., 2013. […] Data from alamarBlue assays, a measure of cellular viability, provided similar IC50s. Immortalized astrocytes were viable above 20 μM ritanserin.

[1] = system: JWL578 GBM stem cell line; assay: cell growth suppression, live cell count; format: cell-based; settings: Homo sapiens, 96 h; single dose, live cells four days post-treatment
Method: as §1, §2

U251 GBM line = assay: cell growth suppression, live cell count; format: cell-based; settings: Homo sapiens, U-251, 96 h; single dose, live cells four days post-treatment
Method: as §1, §2

VMM39 melanoma line = assay: cell growth suppression, live cell count; format: cell-based; settings: Homo sapiens, VMM39, 96 h; single dose, live cells four days post-treatment
B16 melanoma line = assay: cell growth suppression, live cell count; format: cell-based; settings: Mus musculus, B16, 96 h; single dose, live cells four days post-treatment
Immortalized astrocytes = assay: viability of immortalized astrocytes; format: cell-based
Source text: as §1

HSP60 = assay: dot-blot phospho-proteomics assay in U251; format: cell-based, human; settings: U251, 15 μM ritanserin, lysed at 24 hours
Method: (§3) Immunoblotting was performed as previously described. […] Antibodies were obtained from Cell Signaling Technology (Danvers, Mass., United States of America). Cells were lysed 24-72 hours post-treatment in 1× lysis buffer. The Human Phospho-Kinase Array kit (R&D Systems, Minneapolis, Minn., United States of America) was used to identify ritanserin targets. Immunoblots were performed with multiple replicates.
(§4) A dot-blot proteomics assay was used to investigate ritanserin downstream targets. U251 treated with 15 μM ritanserin were lysed at 24 hours. Several target proteins were substantially changed with ritanserin treatment. HSP60 decreased to 10% of baseline. Heat shock proteins are molecular targets in glioblastoma, and their loss prevents the unfolded protein response. See Ampie et al., 2015. HIF-1a and possibly mTOR up-regulate HSP60. P70 S6K phosphorylation at T389/T421 was decreased, as expected given DGKα activation of mTOR.

[2] = system: P70 S6K phosphorylation at T389/T421; assay: dot-blot phospho-proteomics assay in U251; format: cell-based, human; settings: U251, 15 μM ritanserin, lysed at 24 hours
Method: as §3, §4

mTOR promoter = mTOR promoter reporter dual luciferase assay; format: cell-based, human; settings: U251 and VMM39, 20 μM ritanserin vs vehicle
Method: (§5) mTOR promoter reporter-RLuc or HIF-1α binding site-FLuc plasmids were transfected into serum-starved U251 and VMM39 one day after cell plating at 60-80% confluency using Fugene HD at 3:1 (Promega Corporation, Fitchburg, Wis., United States of America). Cells were fed several hours post-transfection and ritanserin was added. Cells were lysed after 36-48 hours and assayed with the Dual-Luciferase Reporter assay system kit (Promega Corporation, Fitchburg, Wis., United States of America) and Promega GloMax® 20/20 luminometer (Promega Corporation, Fitchburg, Wis., United States of America). Results were double-normalized using control empty vectors pRL and pGL3.
(§6) To compare to previous findings that DGKα inhibition affects mTOR transcription, U251 and VMM39 were transfected with an mTOR promoter reporter and treated with ritanserin or vehicle. […] Ritanserin therefore appears to mimic R59022's effects on known DGKα targets in the mTOR and HIF-1α signaling pathways. See Dominguez et al., 2013.

HIF-1α = HIF-1α binding site reporter dual luciferase assay; format: cell-based, human; settings: U251, 20 μM ritanserin vs vehicle
Method: as §5, §6

p53 S15 = assay: immunoblot of p53 S15 phosphorylation; format: cell-based, human; settings: extracts from U251 and VMM39 cell lines
Method: as §3
Decreased p53 S15 can cause chemosensitization to other cytotoxic reagents. p53 is hyper-phosphorylated after serine 15 phosphorylation in DNA-damaged cells as an […], pro-transcriptional pathway, and antagonism of S15 phosphorylation is associated with increasing sensitivity to DNA-damaging agents. See Loughery et al., 2014; and Wittlinger et al., 2007. Immunoblots of extracts from both U251 and VMM39 cell lines confirmed that ritanserin decreases S15 phosphorylation.

[3] = system: U251 human glioblastoma cells; assay: orthotopic intracranial U251 xenograft survival; format: in vivo, athymic nu/nu mice; settings: 50 mg/kg daily oral gavage, started one week after injection
Method: (§7) Intracranial surgical implantation of tumor was as previously described. See Kefas et al., 2013. In brief, 400,000 U251 human glioblastoma or 50,000 GL261 mouse glioma suspended in 4 μL of serum-free DMEM were injected into anesthetized mice through a burr hole placed […] to the bregma. Treatment for 8-9 mice per group began 6-7 days post-tumor implantation via oral gavage and continued daily. Magnetic resonance images were taken at 3 weeks post-tumor implantation to assess tumor volume, and volumes were calculated as previously described. See Kefas et al., 2013. Mice were euthanized at 20% weight loss or with the first sign of neurological impairment.
Athymic nu/nu mice were injected with U251 cells and one week later began daily oral gavage treatment.

GL261 mouse glioma cells = assay: syngeneic intracranial GL261 glioma model; format: in vivo, C57BL/6 mice
Method: as §7
(§8) DGKα inhibition decreases T-cell anergy. Thus, it is believed that a syngeneic, immunocompetent tumor model could show a stronger survival benefit. GL261 mouse glioma cells were implanted intracranially and treatment begun six days later. Ritanserin improved median survival to 64 days versus 36 days with vehicle. […] Ritanserin treatment also yielded decreases in tumor size and prolonged survival in other cell lines and xenograft models.

[4] = system: VMM39 human melanoma cells; assay: subcutaneous melanoma tumor model; format: in vivo, athymic nu/nu mice; settings: 50 mg/kg, compared to vehicle and 10 mg/kg ritanserin
Method: For subcutaneous tumors, 250,000 VMM39 human melanoma cells were injected subcutaneously into the left flank. After two weeks, tumors were measured daily using electronic calipers and tumor volume calculated. Mice were euthanized when tumors were greater than […] in any dimension or greater than 1000 mm^3 in volume.
as §8

[5] = system: G88 mesenchymal GBM stem cell line; assay: intracranial G88 mesenchymal GBM stem cell xenograft survival; format: in vivo, mice; settings: 50 mg/kg daily, started six days after implantation; vehicle 17.5 days
Method: as §7
(§9) Glioblastomas can be categorized into four different subtypes based on gene expression patterns and clinical characterization. […] In particular, median survival increased from 17.5 days to 28.5 days in mice with xenografts from a G88 mesenchymal GBM stem cell line.

[6] = system: G2 mesenchymal GBM stem cell line; assay: intracranial G2 mesenchymal GBM stem cell xenograft survival; format: in vivo, mice; settings: 50 mg/kg daily oral gavage vs vehicle
[7] = system: mesenchymal GBM cell lines; assay: ritanserin treatment of 11 GBM cell lines of various sub-types; format: cell-based; settings: in vitro
Source text: as §9

NF-κB = NF-κB luciferase assay; format: cell-based; settings: two mesenchymal GBM cell lines (G2, G88)
Method: (§10) Since radiation is a frontline treatment for GBM, the combination of ritanserin treatment and radiotherapy was tested. The radiosensitization of two different mesenchymal GBM stem cells, including a radioresistant cell type (i.e., G88 cells) is shown in FIGS. 9A and 9B. […] Chou-Talalay analysis indicated synergy. Ritanserin treatment also appears to affect downstream regulators of the radiation response. NF-κB has been indicated as a factor in radioresistance. Thus, the effect of ritanserin on NF-κB expression was also measured in two mesenchymal GBM cell lines using a NF-κB luciferase assay.

RhoA = RhoA ELISA; format: cell-based; settings: G2 and G88 mesenchymal GBM cells
Source text: (§11) Further, based on increases in unprenylated ras-related protein Rap1A in various GBM cells, it appears that ritanserin inhibits geranylgeranyltransferase type 1 (GGTase I).

[8] = system: mesenchymal GBM stem cells (G2, G88); assay: radiosensitization, soft agar colony assay; format: cell-based; settings: 1.25 μM ritanserin, 4 Gy radiation, colonies after two weeks
Method: as §10

[9] = system: U251 GBM and VMM39 melanoma cell lines; assay: Annexin V cell death assay (flow cytometry); format: cell-based, human; settings: compared to controls
Method: as §1
To determine the mechanism of ritanserin cytotoxicity, ritanserin-treated cells were assayed for Annexin V-positivity as well as cellular permeability (with DNA dye 7-AAD).

[10] = system: lung (A549) and pancreatic (MPanc-96) carcinoma cells; assay: ritanserin sensitivity after epithelial-mesenchymal transition; format: cell-based; settings: EMT induced with TNF-alpha and TGF-beta; 15 μM (lung), 10 μM (pancreatic)
Source text: Thus it appears that the mesenchymal cancer phenotype can be preferentially targeted with ritanserin in GBM and in other cancers, as well.

[11] = system: geranylgeranyltransferase type 1 (GGTase I); assay: unprenylated Rap1A immunoblot; format: cell-based; settings: various GBM cells
Source text: as §11

[12] = target: serotonin (5-hydroxytryptamine, 5-HT) subtype 5-HT2; settings: read-out: Ki as 5-HT2 antagonist; cited from earlier work
[13] = previous studies; cited from earlier work
[14] = previous studies (Leysen et al., 1985); cited from earlier work

DGKα, sequence (P23743 whole entry, species assumed): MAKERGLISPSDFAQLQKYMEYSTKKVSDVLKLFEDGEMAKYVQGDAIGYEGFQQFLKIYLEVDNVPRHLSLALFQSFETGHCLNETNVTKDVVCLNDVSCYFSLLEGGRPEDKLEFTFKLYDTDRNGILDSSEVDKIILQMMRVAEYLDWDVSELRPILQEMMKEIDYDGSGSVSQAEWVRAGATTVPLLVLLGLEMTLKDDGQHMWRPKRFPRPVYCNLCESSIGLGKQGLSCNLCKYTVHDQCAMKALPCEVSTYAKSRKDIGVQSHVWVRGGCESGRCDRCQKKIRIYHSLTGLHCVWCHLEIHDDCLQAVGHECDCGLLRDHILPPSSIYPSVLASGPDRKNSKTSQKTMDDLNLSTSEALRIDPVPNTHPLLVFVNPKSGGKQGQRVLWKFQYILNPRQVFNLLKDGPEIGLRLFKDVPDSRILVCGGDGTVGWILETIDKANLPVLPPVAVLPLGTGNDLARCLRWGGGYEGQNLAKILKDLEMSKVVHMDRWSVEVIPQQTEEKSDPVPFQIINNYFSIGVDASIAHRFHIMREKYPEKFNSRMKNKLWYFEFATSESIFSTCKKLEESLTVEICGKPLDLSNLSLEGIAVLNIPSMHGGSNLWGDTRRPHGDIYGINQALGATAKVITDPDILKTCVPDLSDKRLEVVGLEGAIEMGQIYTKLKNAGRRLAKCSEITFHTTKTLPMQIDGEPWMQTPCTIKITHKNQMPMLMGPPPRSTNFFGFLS

Structure (SMILES): Cc1nc2sccn2c(=O)c1CCN1CCC(=C(c2ccc(F)cc2)c2ccc(F)cc2)CC1 [ritanserin, 6-[2-[4-[bis(4-fluorophenyl)methylidene]piperidin-1-yl]ethyl]-7-methyl-[1,3]thiazolo[3,2-a]py-rimidin-5-one]
- IC50 (DGKα): 9 µM
- IC50 (GL261 GBM line): 5 to 10 µM
- IC50 [1]: 5 to 10 µM
- IC50 (U251 GBM line): 5 to 10 µM
- IC50 (VMM39 melanoma line): 10 to 15 µM
- IC50 (B16 melanoma line): 10 to 15 µM
- ritanserin concentration at which astrocytes were viable (Immortalized astrocytes): above 20 μM
- HSP60 level (HSP60): 10 % of baseline
- P70 S6K phosphorylation at T389/T421 [2]: decreased
- mTOR promoter activity (mTOR promoter): strongly decreased
- HIF-1α reporter activity (HIF-1α): loss of HIF-1α reporter activity
- p53 S15 phosphorylation (p53 S15): decreases
- survival [3]: increased survival significantly
- median survival (GL261 mouse glioma cells; 50 mg/kg daily oral, started six days after implantation, vehicle 36 days): 64 days
- tumor size by magnetic resonance imaging (GL261 mouse glioma cells; three weeks after implantation, vs vehicle): decreased tumor size
- tumor formation [4]: delayed tumor formation
- median survival [5]: 28.5 days
- median survival [6]: increased
- sensitivity of mesenchymal GBM cell lines relative to other subtypes [7]: three to four times more sensitive
- NF-κB expression (NF-κB): decreased NF-κB expression
- RhoA expression (RhoA): inhibit RhoA expression
- radiosensitization, colony number [8]: clear radiosensitization effect
- Annexin V positivity [9]: increased Annexin V
- sensitivity to ritanserin after EMT [10]: more sensitive
- GGTase I inhibition inferred from unprenylated Rap1A [11]: inhibits
- Ki [12]: 0.00039 µM
- oral bioavailability [13]: orally bioavailable
- brain exposure [14]: reach the brain in meaningful concentrations

Structure (SMILES): Cc1nc2sccn2c(=O)c1CCN1CCC(=C(c2ccccc2)c2ccc(F)cc2)CC1 [R59022]
- IC50 (DGKα): 20 µM

Source: patent US10946020B2, “Compositions and methods for treating cancer” (University of Virginia Patent Foundation, priority 2016, dated 2021)
